Results as given in PubChem BioAssay AID248 (DTP/NCI, 2004).
Several values for one entry are separate records, joined by “and”; a condition that tells them apart may be missing. Equal values may be shown once. Toxic doses and inconclusive results are not listed. Cut-off read from the data, not from the text of the source: active = T/C of 150% or more; inactive = T/C below 125%.

System: L1210 leukemia ip in BDF1 mice, survival T/C
Assay: NCI In Vivo Anticancer Drug Screen. Data for tumor model L1210 Leukemia (intraperitoneal) in B6D2F1 (BDF1) mice
Conditions: endpoint: mean survival time, higher = longer survival
Method in brief: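 Transplanted-tumor mice were given test agent; controls received vehicle only. Survival readings from the two groups were divided (treated over control).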

[1] = dose: 100.0 mg/kg/injection, schedule: Q04DX002 (ip), vehicle: Klucel (hydroxypropylcellulose) (HPC)
[2] = dose: 100.0 mg/kg/injection, schedule: Q04DX003 (ip), vehicle: saline with Tween-80
[3] = dose: 200.0 mg/kg/injection, schedule: Q04DX002 (ip), vehicle: Klucel (hydroxypropylcellulose) (HPC)
[4] = dose: 200.0 mg/kg/injection, schedule: Q04DX003 (ip), vehicle: saline with Tween-80
[5] = dose: 400.0 mg/kg/injection, schedule: Q04DX002 (ip), vehicle: Klucel (hydroxypropylcellulose) (HPC)
[6] = dose: 400.0 mg/kg/injection, schedule: Q04DX003 (ip), vehicle: saline with Tween-80
[7] = dose: 100.0 mg/kg/injection, schedule: Q01DX001 (ip), vehicle: saline
[8] = dose: 200.0 mg/kg/injection, schedule: Q01DX001 (ip), vehicle: saline
[9] = dose: 400.0 mg/kg/injection, schedule: Q01DX001 (ip), vehicle: saline
[10] = dose: 100.0 mg/kg/injection, schedule: Q01DX009 (ip), vehicle: saline with Tween-80
[11] = dose: 200.0 mg/kg/injection, schedule: Q01DX009 (ip), vehicle: saline with Tween-80
[12] = dose: 400.0 mg/kg/injection, schedule: Q01DX009 (ip), vehicle: saline with Tween-80
[13] = dose: 100.0 mg/kg/injection, schedule: Q01DX001 (ip), vehicle: saline with Tween-80
[14] = dose: 200.0 mg/kg/injection, schedule: Q01DX001 (ip), vehicle: saline with Tween-80
[15] = dose: 400.0 mg/kg/injection, schedule: Q01DX001 (ip), vehicle: saline with Tween-80
[16] = dose: 100.0 mg/kg/injection, schedule: Q01DX009 (ip), vehicle: Klucel (hydroxypropylcellulose) (HPC)
[17] = dose: 100.0 mg/kg/injection, schedule: Q04DX003 (ip), vehicle: Klucel (hydroxypropylcellulose) (HPC)
[18] = dose: 200.0 mg/kg/injection, schedule: Q01DX009 (ip), vehicle: Klucel (hydroxypropylcellulose) (HPC)
[19] = dose: 200.0 mg/kg/injection, schedule: Q04DX003 (ip), vehicle: Klucel (hydroxypropylcellulose) (HPC)

Measured: T/C

CC(=O)OC1CCC2(C)C(CCC3C2CCC2(C)C(C(C)C(=O)O)CCC32)C1 (stereo not drawn)
inactive: [1] 100 % of control | [2] 104 % of control | [3] 97 % of control | [4] 98 % of control | [5] 94 % of control | [6] 93 % of control

Cc1ccc(C)c2c3c(sc12)CCCC3
inactive: dose: 100.0 mg/kg/injection, schedule: Q01DX001 (ip), vehicle: carboxymethylcellulose (CMC) 95 % of control | dose: 200.0 mg/kg/injection, schedule: Q01DX001 (ip), vehicle: carboxymethylcellulose (CMC) 90 % of control | dose: 400.0 mg/kg/injection, schedule: Q01DX001 (ip), vehicle: carboxymethylcellulose (CMC) 101 % of control

CCCS(=O)(=O)N1CCCC(C)C1 (stereo not drawn)
inactive: [1] 94 % of control | [3] 97 % of control | [5] 97 % of control

OCn1c(O)c2ccccc2c1N=Nc1ccccc1
inactive: [7] 95 % of control | [8] 95 % of control | [9] 95 % of control

NC(=O)N/N=C1\CC2CCC1C2Cl (stereo not drawn)
inactive: dose: 75.0 mg/kg/injection, schedule: Q01DX001 (ip), vehicle: saline 100 % of control and 107 % of control | dose: 150.0 mg/kg/injection, schedule: Q01DX001 (ip), vehicle: saline 96 % of control | dose: 300.0 mg/kg/injection, schedule: Q01DX001 (ip), vehicle: saline 98 % of control and 88 % of control

C=C(C(N)=O)c1cc(Cl)ccc1Cl
inactive: [10] 96 % of control | [2] 103 % of control | [11] 92 % of control | [4] 101 % of control | [12] 92 % of control | [6] 94 % of control

O=S(=O)(Cc1ccccc1)C1CCCC1
inactive: [7] 104 % of control | dose: 100.0 mg/kg/injection, schedule: Q01DX009 (ip), vehicle: saline 96 % of control | dose: 100.0 mg/kg/injection, schedule: Q04DX003 (ip), vehicle: acetone 103 % of control | [8] 104 % of control | dose: 200.0 mg/kg/injection, schedule: Q01DX009 (ip), vehicle: saline 110 % of control | dose: 200.0 mg/kg/injection, schedule: Q04DX003 (ip), vehicle: acetone 97 % of control | [9] 93 % of control | dose: 400.0 mg/kg/injection, schedule: Q01DX009 (ip), vehicle: saline 113 % of control | dose: 400.0 mg/kg/injection, schedule: Q04DX003 (ip), vehicle: acetone 102 % of control

CCCCCCCCCCCC(CCCC)CCCC
inactive: [13] 93 % of control | [14] 104 % of control | [15] 101 % of control

Ic1ccc(/C=N/Nc2nnc(N/N=C/c3ccc(I)cc3)c3ccccc23)cc1
inactive: dose: 50.0 mg/kg/injection, schedule: Q01DX001 (ip), vehicle: saline 98 % of control | [7] 96 % of control | [8] 98 % of control | [9] 98 % of control

O=C(Nc1ccc(Cl)cc1[N+](=O)[O-])Oc1ccc(Cl)cc1Cc1ccccc1
inactive: dose: 50.0 mg/kg/injection, schedule: Q04DX003 (ip), vehicle: saline with Tween-80 116 % of control | [13] 98 % of control | [10] 100 % of control and 87 % of control | dose: 100.0 mg/kg/injection, schedule: Q04DX002 (ip), vehicle: saline with Tween-80 98 % of control and 102 % of control | [2] 98 % of control and 92 % of control | [14] 93 % of control | [11] 94 % of control and 95 % of control | dose: 200.0 mg/kg/injection, schedule: Q04DX002 (ip), vehicle: saline with Tween-80 94 % of control and 98 % of control | [4] 102 % of control | [15] 91 % of control | [12] 94 % of control and 90 % of control | dose: 400.0 mg/kg/injection, schedule: Q04DX002 (ip), vehicle: saline with Tween-80 96 % of control and 98 % of control | [6] 102 % of control and 87 % of control

CC(N)c1cccc2ccccc12 (stereo not drawn)
inactive: dose: 25.0 mg/kg/injection, schedule: Q04DX002 (ip), vehicle: saline 98 % of control | dose: 50.0 mg/kg/injection, schedule: Q04DX002 (ip), vehicle: saline 94 % of control | dose: 100.0 mg/kg/injection, schedule: Q04DX002 (ip), vehicle: saline 98 % of control

O=C(O)c1ccc2c3c(ccc(C(=O)O)c13)CC2
inactive: [7] 104 % of control

CCCCCCC(=O)CCCC(C)CCCC(C)C (stereo not drawn)
inactive: [16] 91 % of control | [17] 93 % of control | [18] 97 % of control | [19] 95 % of control | dose: 400.0 mg/kg/injection, schedule: Q01DX009 (ip), vehicle: Klucel (hydroxypropylcellulose) (HPC) 98 % of control | dose: 400.0 mg/kg/injection, schedule: Q04DX003 (ip), vehicle: Klucel (hydroxypropylcellulose) (HPC) 88 % of control

CC(C)(C)OC(=O)CC#N
inactive: dose: 75.0 mg/kg/injection, schedule: Q04DX003 (ip), vehicle: saline 97 % of control | [7] 97 % of control | dose: 150.0 mg/kg/injection, schedule: Q04DX003 (ip), vehicle: saline 94 % of control | [8] 101 % of control | dose: 300.0 mg/kg/injection, schedule: Q04DX003 (ip), vehicle: saline 100 % of control

CC(C)=CCN1CCC2(C)c3cc(O)ccc3CC1C2C (stereo not drawn)
inactive: dose: 15.62 mg/kg/injection, schedule: Q04DX003 (ip), vehicle: Klucel (hydroxypropylcellulose) (HPC) 96 % of control | dose: 25.0 mg/kg/injection, schedule: Q01DX009 (ip), vehicle: Klucel (hydroxypropylcellulose) (HPC) 110 % of control | dose: 31.25 mg/kg/injection, schedule: Q04DX003 (ip), vehicle: Klucel (hydroxypropylcellulose) (HPC) 100 % of control | dose: 50.0 mg/kg/injection, schedule: Q01DX009 (ip), vehicle: Klucel (hydroxypropylcellulose) (HPC) 110 % of control | dose: 62.5 mg/kg/injection, schedule: Q04DX003 (ip), vehicle: Klucel (hydroxypropylcellulose) (HPC) 100 % of control | [16] 110 % of control | dose: 125.0 mg/kg/injection, schedule: Q04DX003 (ip), vehicle: Klucel (hydroxypropylcellulose) (HPC) 94 % of control | [18] 98 % of control | dose: 250.0 mg/kg/injection, schedule: Q04DX003 (ip), vehicle: Klucel (hydroxypropylcellulose) (HPC) 102 % of control

CC(=O)OC1COC(n2cnc3c(N4CCCCC4)nc(Cl)nc32)C(OC(C)=O)C1OC(C)=O (stereo not drawn)
inactive: [7] 102 % of control | [8] 96 % of control | [9] 102 % of control

CC(C)(C)N(N)Cc1ccccc1
inactive: [7] 106 % of control | [8] 95 % of control | [9] 104 % of control

NC(N)=NN=C1CCCCC1
inactive: dose: 15.0 mg/kg/injection, schedule: Q01DX Z (ip), vehicle: saline 92 % of control | dose: 30.0 mg/kg/injection, schedule: Q01DX Z (ip), vehicle: saline 92 % of control | dose: 60.0 mg/kg/injection, schedule: Q01DX Z (ip), vehicle: saline 102 % of control | dose: 60.0 mg/kg/injection, schedule: Q01DX Z (oral), vehicle: saline 105 % of control | dose: 120.0 mg/kg/injection, schedule: Q01DX Z (ip), vehicle: saline 97 % of control | dose: 120.0 mg/kg/injection, schedule: Q01DX Z (oral), vehicle: saline 108 % of control | dose: 240.0 mg/kg/injection, schedule: Q01DX Z (oral), vehicle: saline 100 % of control | dose: 480.0 mg/kg/injection, schedule: Q01DX Z (oral), vehicle: saline 103 % of control

Cc1cc(C)[n+](C)c(C)c1
inactive: dose: 12.5 mg/kg/injection, schedule: Q04DX003 (ip), vehicle: saline 96 % of control | dose: 25.0 mg/kg/injection, schedule: Q04DX003 (ip), vehicle: saline 93 % of control | dose: 50.0 mg/kg/injection, schedule: Q04DX003 (ip), vehicle: saline 101 % of control | dose: 100.0 mg/kg/injection, schedule: Q04DX003 (ip), vehicle: saline 93 % of control

COc1c(Cl)c(C)c(Cl)c(C)c1C#CC(=O)O
inactive: dose: 100.0 mg/kg/injection, schedule: Q01DX001 (ip), vehicle: Klucel (hydroxypropylcellulose) (HPC) 92 % of control | [17] 95 % of control | dose: 200.0 mg/kg/injection, schedule: Q01DX001 (ip), vehicle: Klucel (hydroxypropylcellulose) (HPC) 97 % of control | [19] 92 % of control | dose: 400.0 mg/kg/injection, schedule: Q01DX001 (ip), vehicle: Klucel (hydroxypropylcellulose) (HPC) 101 % of control

O=C(NC1CCCCC1)Oc1ccc2ccccc2c1
inactive: [1] 102 % of control | [3] 100 % of control | [5] 107 % of control
